Experimental findings from ChEMBL document CHEMBL1201862, “PubChem BioAssay data set” (2004) are described below.

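Where inhibition never reached the appropriate level, the endpoint shown equals the highest concentration tested. Otherwise, values were interpolated linearly from a five-concentration, 48-hour dose response in 96-well plates. Here, GI50 denotes the concentration required for 50% inhibition of growth.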 Calls of active or inactive are those of the source. Rule as the data show it: active = GI50 up to about 1.1 µM and inactive = higher.

Holding throughout (experiment): NCI-60 cell line screen, 48 h
Test [1] deals with SF-295.
The test system of test [2] is MDA-MB-435.
Test [3] concerns 786-0.
For test [4], the system named is HCC 2998.
For test [5], the system named is NCI-H522.
Test [6] concerns OVCAR-8.
Test [7] deals with IGROV-1.
Test [8] concerns OVCAR-4.
Test [9] concerns NCI-H23.
Test [10] deals with SK-OV-3.
Test [11] concerns HOP-62.
Test [12] concerns MOLT-4.
In test [13] the test system is MDA-N.
Test [14] has as its system CCRF-CEM.
Test [15] deals with CAKI-1.
Test [16] deals with TK-10.
Test [17] deals with UO-31.
In test [18] the test system is HT-29.

Turning to `CC(=O)OCc1cncn1S(=O)(=O)c1ccc(C)cc1`, the GI50 in test [1] was > 100 µM (inactive); in [2], 10.4 µM (inactive); in test [3] it was > 100 µM (inactive); in [4], > 62.4 µM (inactive); in test [5], 71.9 µM (inactive); in test [6], > 91.4 µM (inactive). The GI50 was > 74 µM (inactive) in [7]; > 76.7 µM (inactive) in [8]; > 100 µM (inactive) in test [9]; > 100 µM (inactive) in [10]; > 100 µM (inactive) in test [11]; 32 µM (inactive) in test [12]. The GI50 was 9.46 µM (inactive) in test [13]; 30.4 µM (inactive) in test [14]; > 100 µM (inactive) in [15]; > 100 µM (inactive) in test [16]; > 100 µM (inactive) in test [17]; 33.7 µM (inactive) in test [18].

Turning to `CCNc1nnc(-c2ccccc2Nc2ccccc2-c2nnc(NCC)s2)s1`, the GI50 in test [1] is 16.3 µM (inactive); in test [2] it was 17.4 µM (inactive); in test [3], 11 µM (inactive); in test [4] it was 11.6 µM (inactive); in test [5], 6.75 µM (inactive); in [6], 13.6 µM (inactive). In addition, the GI50 was 6.18 µM (inactive) in [7]; 27.5 µM (inactive) in test [8]; 14 µM (inactive) in [9]; 9.06 µM (inactive) in test [10]; 22.2 µM (inactive) in [11]; 4.35 µM (inactive) in test [12]. Moreover, the GI50 in [13] was 9.73 µM (inactive); in [14], 4.18 µM (inactive); in [15] it was 2.85 µM (inactive); in [16], 11.4 µM (inactive); in test [17] it was 4.71 µM (inactive); in test [18] it was 10.9 µM (inactive).

Consider `C(=C\c1cccs1)/c1cccc(/C=C/c2cccs2)n1`, for which the GI50 in [1] is > 100 µM (inactive); in test [2], > 100 µM (inactive); in test [3], 35.3 µM (inactive); in test [4] it was 56.9 µM (inactive); in test [5], 1.53 µM (inactive); in [6], 60.5 µM (inactive). For the same molecule, the GI50 is 50 µM (inactive) in [7]; 12.4 µM (inactive) in [8]; > 100 µM (inactive) in [9]; > 100 µM (inactive) in test [10]; 83 µM (inactive) in [11]; > 100 µM (inactive) in test [12]. Also, the GI50 is > 100 µM (inactive) in [13]; > 100 µM (inactive) in [14]; > 100 µM (inactive) in [15]; 34.9 µM (inactive) in test [16]; 30.3 µM (inactive) in [17]; > 100 µM (inactive) in test [18].

For `[O-][n+]1onc(-c2ccccc2)c1CN1CCOCC1`, the GI50 is > 100 µM (inactive) in test [1]; > 100 µM (inactive) in test [2]; > 100 µM (inactive) in test [3]; > 100 µM (inactive) in [4]; 26.4 µM (inactive) in test [5]; > 100 µM (inactive) in test [6]. Further, the GI50 is 80 µM (inactive) in [7]; 10.4 µM (inactive) in test [8]; > 100 µM (inactive) in [9]; > 100 µM (inactive) in [10]; > 100 µM (inactive) in [11]; 23.3 µM (inactive) in test [12]. Also, the GI50 in test [13] was > 100 µM (inactive); in test [14], 22.8 µM (inactive); in test [15] it was > 100 µM (inactive); in [16], > 100 µM (inactive); in test [17], 77.1 µM (inactive); in [18] it was > 100 µM (inactive).

As for `C=CC(OC(C)=O)c1ccc(OC(=O)C(C)C)c(OC)c1` (stereo not drawn), the GI50 was 10.5 µM (inactive) in test [1]; 5.73 µM (inactive) in test [2]; 1.99 µM (inactive) in test [3]; 11.2 µM (inactive) in test [4]; 1.54 µM (inactive) in test [5]; 4.81 µM (inactive) in test [6]. For the same molecule, the GI50 in [7] is 12.9 µM (inactive); in test [8], 4.9 µM (inactive); in test [9], 9.4 µM (inactive); in [10], 16.6 µM (inactive); in [11] it was 10.2 µM (inactive); in test [12], 9.02 µM (inactive). The GI50 is 5.22 µM (inactive) in [13]; 2.01 µM (inactive) in test [14]; 1.77 µM (inactive) in test [15]; 5.04 µM (inactive) in test [16]; 3.44 µM (inactive) in [17]; 2.31 µM (inactive) in [18].

Turning to `Nc1nc(Cl)c(N)c(NCC2(CO)CC2)n1`, the GI50 in test [1], in test [2], in test [3], in [4], in [5] and in test [6] was > 100 µM (inactive) in each case. Besides, the GI50 in test [7], in test [8], in test [9], in test [10], in test [11] and in test [12] was > 100 µM (inactive) throughout. In addition, the GI50 in test [13], in [14], in [15], in [16], in [17] and in test [18] was > 100 µM (inactive) in each case.

As for `C=C(C)C1=CCC[C@]2(C1)N=C(OC)[C@@H](C(C)C)N=C2OC`, the GI50 in test [1] was > 100 µM (inactive); in test [2], 40.1 µM (inactive); in test [3], > 100 µM (inactive); in test [4], > 100 µM (inactive); in test [5], 31.3 µM (inactive); in [6], > 100 µM (inactive). Also, the GI50 in test [7] was 47.1 µM (inactive); in test [8], > 100 µM (inactive); in test [9], > 100 µM (inactive); in [10], > 100 µM (inactive); in test [11], > 100 µM (inactive); in test [12] it was 28.7 µM (inactive). Also, the GI50 is 32.2 µM (inactive) in [13]; 34.3 µM (inactive) in [14]; > 100 µM (inactive) in test [15]; > 100 µM (inactive) in test [16]; 96.4 µM (inactive) in test [17]; > 100 µM (inactive) in test [18].

In the case of `O=S(=O)(O)c1cccc2cccc(/N=N/c3c(O)ccc4ccccc34)c12`, the GI50 in test [1], in test [2], in test [3], in test [4], in test [5] and in test [6] was > 100 µM (inactive) throughout. For the same molecule, the GI50 in test [7] was 31.9 µM (inactive); in test [8], > 100 µM (inactive); in test [9], > 100 µM (inactive); in [10], > 100 µM (inactive); in [11] it was > 100 µM (inactive); in [12], > 100 µM (inactive). Besides, the GI50 in test [13], in test [14], in test [15], in [16], in test [17] and in test [18] was > 100 µM (inactive) each time.

`O=C1O/C(=C(/Br)c2ccc(Cl)c(Cl)c2)c2ccccc21`: the GI50 in test [1], in [2], in test [3], in test [4], in test [5] and in [6] was > 10 µM (inactive) in each case. For the same molecule, the GI50 in test [7], in test [8], in [9], in test [10], in test [11] and in test [12] was > 10 µM (inactive) throughout. Further, the GI50 in [13], in test [14], in [15], in test [16], in test [17] and in test [18] was > 10 µM (inactive) each time.

Turning to `O=C1C=C(NCC(c2ccccc2)c2ccccc2)C(=O)c2ncccc21`, the GI50 in test [1] was 1.74 µM (inactive); in [2] it was 1.35 µM (inactive); in test [3] it was 2.88 µM (inactive); in test [4], 0.785 µM (active); in [5], 1.34 µM (inactive); in [6], 2.39 µM (inactive). The GI50 in [7] was 1.38 µM (inactive); in test [8], 1.84 µM (inactive); in [9], 1.54 µM (inactive); in test [10], 7.33 µM (inactive); in test [11], 1.57 µM (inactive); in test [12], 2.31 µM (inactive). Also, the GI50 in [13] was 1.6 µM (inactive); in [14] it was 2.64 µM (inactive); in test [15] it was 2.4 µM (inactive); in [16] it was 17 µM (inactive); in [17], 1.11 µM (active); in test [18], 7.45 µM (inactive).

On to `CC(C)Sc1nncc(/C(N)=N/O)n1`, for which the GI50 in test [1], in test [2], in [3], in test [4], in test [5] and in test [6] was > 100 µM (inactive) throughout. In addition, the GI50 in [7], in [8], in test [9], in [10], in test [11] and in [12] was > 100 µM (inactive) in each case. Besides, the GI50 in [13], in test [14], in test [15], in test [16], in test [17] and in test [18] was > 100 µM (inactive) throughout.
